Measurements published in paper PMC7700248, “Chemical and Biological Study of Novel Aplysiatoxin Derivatives from the Marine Cyanobacterium Lyngbya sp” (Toxins, 2020).
Where two headings read alike, the source gives them in different places.

Legend:
Artemia salina = experiment: Brine shrimp toxicity (lethality) assay; assay type: in vivo; conditions: 24 h; for survival at 0.1 µM / survival at 1 µM / survival at 10 µM / survival at 30 µM: Artemia salina, read-out: Percentage of Survival of Artemia salina after 24 h
Experimental: The lethality assay of brine shrimp A. salina was developed by Vanhaecke et al.. […] Commercially available A. salina or brine shrimp cysts were purchased and cultivated in 3.2% of saline water. Before cultivation, the saline was aerated, and then cysts were kept at room temperature for 24 h. For toxicity screening, hatched larvae were collected and introduced in saline water. Add 0.9% saline water and approximately the same number of larvae 30 per well to make a 96-wells test culture plate. ATXs with 0.1 μM, 1 μM, 10 μM, 30 μM were added to the test culture plate, while the equal volume of dimethyl sulfoxide (DMSO) (Aladdin, Shanghai, China) and dichloromethane (Aladdin, Shanghai, China) were added as blank control test and positive control separately. After 24 h at 25 °C, the percent of survival of A. salina was calculated (Supplementary Materials 1.3.2).
Figure S1.3.1.2. […]
Figure S1.3.1.3. […]
1.3.2. Brine Shrimp Cytotoxicity Assay
Commercially available Artemia salina (A. salina) or brine shrimp cysts were purchased and cultivated in 3.2% of saline water. Before cultivation, the saline was aerated, and then cysts were kept at room temperature for 24 h. For toxicity screenin g, hatched larvae were collected and introduced in saline water. Add saline water and equivalent larvae in per well of 96 wells to make test culture plate.
Aplysiatoxins with 0.1 μM, 1 μM, 10 μM, 30 μM was added to test culture plate, while DMSO and dichloromethane were added as blank control test and positive control separately. After 24 h in 25 °C, the percent of survival of A. salina was calculated. […]

potassium channel Kv1.5 [1] = biological target: T1, potassium channel Kv1.5 (Homo sapiens, UniProt P22460); experiment: Kv1.5 ion channel inhibitory experiment (whole-cell patch clamp, CHO cells); assay type: cell-based
T1 construct: expressed in transfected cells; host or cells: Chinese hamster ovary (CHO) cells
Experimental: Cell preparation: the day before the experiment, digestion of Chinese hamster ovary (CHO) cells (Sigma Chemical Co., St. Louis, MO, USA) with a density of 60–80% by trypsin, and split into some small glass plates, which placed in 35 mm petri dish, then added 10% fetal bovine serum (FBS) (Gibco, CA, USA), and Dulbecco’s modified eagle medium (DMEM) (HyClone, Logan, UT, USA) culture medium without P/S was cultured overnight in an incubator [35, 36, 37] (Supplementary Materials 1.3.1).
Electrophysiology: the cells were transferred to a perfusion tank and perfused with extracellular fluid. The intracellular fluid (mM) was: K Aspartate, 130; MgCl2, 5; EGTA 5; HEPES, 10; Tris-ATP 4; pH 7.2 (KOH titration). The intracellular fluid was stored in small portions in a refrigerator at −80 °C and thawed on the day of the experiment. The electrodes were filled with intracellular fluid and drawn with PC-10 (Narishige, Japan). Whole-cell patch-clamp recording, noise is filtered using one-fifth of the sampling frequency. The cells were clamped at −80 mV and then depolarized to 20 mV with a square wave lasting 2 s to obtain Kv1.5 current. This procedure is repeated every 20 s. After it was stabilized, compound 1, compound 2, and acacetin were perfused, and when the reaction was stabilized, the strength of the blocking was calculated (Supplementary Materials 1.3.1). […]
detection at 190 nm) to afford twenty‐one subfractions (F.D.1‐21). […]
Electrophysiology. […] After it was stabilized, compound 1, compound 2, and acacetin were perfused, and when the reaction was stabilized, the strength of the blocking was calculated.
Data analysis and statistics. […] The IC50 value was determined by fitting the data points to the equation. […]
Figure S1.3.1.1. (A) Kv1.5 traces elicited by 5 s pulses from −80 to + 20 mV and tail currents recorded at −80 mV in the absence and presence of 0.1 μM, 0.3 μM, 1 μM, 3 μM, 10 μM, and 30 μM neo‐ […]

potassium channel Kv1.5 [2] = biological target: T1, potassium channel Kv1.5; conditions: read-out: IC50, inhibitory activity against Kv1.5, cited from earlier work
protein kinase C (PKC) = conditions: ref [20],[21],[34]; cited from earlier work

T1 sequence (P22460 whole entry): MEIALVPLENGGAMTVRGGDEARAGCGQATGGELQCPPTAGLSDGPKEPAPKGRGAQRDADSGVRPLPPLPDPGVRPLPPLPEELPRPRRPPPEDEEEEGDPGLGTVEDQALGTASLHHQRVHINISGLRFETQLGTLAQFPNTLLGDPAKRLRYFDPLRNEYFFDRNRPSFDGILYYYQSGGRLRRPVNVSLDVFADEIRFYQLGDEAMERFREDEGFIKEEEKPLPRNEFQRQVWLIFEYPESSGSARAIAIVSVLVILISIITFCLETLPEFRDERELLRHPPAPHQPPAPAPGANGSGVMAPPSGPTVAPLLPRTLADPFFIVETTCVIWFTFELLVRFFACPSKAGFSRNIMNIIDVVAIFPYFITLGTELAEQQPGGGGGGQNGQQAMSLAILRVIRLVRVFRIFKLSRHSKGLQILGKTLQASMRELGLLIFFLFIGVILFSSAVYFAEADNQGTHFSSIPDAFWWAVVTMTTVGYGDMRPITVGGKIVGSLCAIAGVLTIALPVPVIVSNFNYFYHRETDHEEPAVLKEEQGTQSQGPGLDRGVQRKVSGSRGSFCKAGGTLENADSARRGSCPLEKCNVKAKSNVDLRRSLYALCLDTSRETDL

COC(CCC(C)C1OC23CC(OC(=O)CC(C(C)O)OC(=O)CC(OC)(O2)C(C)CC3(C)C)C1C)c1cccc(O)c1 (centres unmarked) [3-OCH3 DAT, 3-methoxydebromoaplysaitoxin]
concentration at which survival of A. salina began to be influenced (Artemia salina): 10 µM
survival at 0.1 µM (Artemia salina): 94.5 ± 1.87%
survival at 1 µM (Artemia salina): 85.8 ± 6.3%
survival at 10 µM (Artemia salina): 0%
survival at 30 µM (Artemia salina): 0%

COC(CCC(C)C1OC23CC(OC(=O)CC(C(C)O)OC(=O)CC(=C(C)CC2(C)C)O3)C1C)c1cccc(O)c1 (centres unmarked) [Anhydro DAT, anhydrodebromoaplysiatoxin]
concentration at which survival of A. salina began to be influenced (Artemia salina): 10 µM
survival at 0.1 µM (Artemia salina): 94 ± 3.46%
survival at 1 µM (Artemia salina): 91.3 ± 6.94%
survival at 10 µM (Artemia salina): 0%
survival at 30 µM (Artemia salina): 0%

COC(CCC(C)C1OC23CC(OC(=O)CC(C(C)O)OC(=O)CC4(CC2(C)CC4(C)O)O3)C1C)c1cccc(O)c1 (centres unmarked) [Compound 1, neo-debromoaplysiatoxin G]
IC50 (potassium channel Kv1.5 [1]): 1790 ± 220 nM
effect on survival of A. salina (in words) (Artemia salina; 30 µM): no apparent effect
survival at 0.1 µM (Artemia salina): 98 ± 3.4%
survival at 1 µM (Artemia salina): 92.6 ± 1.54%
survival at 10 µM (Artemia salina): 92.4 ± 4.71%
survival at 30 µM (Artemia salina): 91.8 ± 7.73%

COC(CCC(C)C1OC2(C=CC1C)OC(C)(C(=O)CC(=O)OC1CC(=O)OC1C)CC2(C)C)c1cccc(O)c1 (centres unmarked) [Compound 2, neo-debromoaplysiatoxin H]
IC50 (potassium channel Kv1.5 [1]): 1460 ± 140 nM
effect on survival of A. salina (in words) (Artemia salina; 30 µM): no apparent effect
survival at 0.1 µM (Artemia salina): 97.3 ± 2.38%
survival at 1 µM (Artemia salina): 98.9 ± 1.93%
survival at 10 µM (Artemia salina): 97.3 ± 4.62%
survival at 30 µM (Artemia salina): 95.5 ± 1.93%

CO[C@@H](CC[C@H](C)[C@H]1O[C@@]23C[C@H](OC(=O)C[C@H]([C@@H](C)O)OC(=O)C[C@](O)(O2)[C@H](C)CC3(C)C)[C@@H]1C)c1cccc(O)c1 [DAT, debromoaplysiatoxin]
concentration at which survival of A. salina began to be influenced (Artemia salina): 0.1 µM
survival at 0.1 µM (Artemia salina; 0.1 µM): 70.9 ± 6.3%
survival at 1 µM (Artemia salina; 1 µM): 0%
survival at 10 µM (Artemia salina; 10 µM): 0%
survival at 30 µM (Artemia salina; 30 µM): 0%
IC50 (potassium channel Kv1.5 [2]; ref [33]): 1280 ± 80 nM
PKC activation (in words) (protein kinase C (PKC)): strong PKC activation

CO[C@@H](CC[C@H](C)[C@H]1O[C@@]23C[C@H](OC(=O)C2=C(O)[C@H](C)CC3(C)C)[C@@H]1C)c1cccc(O)c1 [NEO-B, neo-debromoaplysiatoxin B]
IC50 (potassium channel Kv1.5 [2]; ref [20],[21],[33]): 300 ± 50 nM

COC(CCC(C)C1OC(=O)C(C)(C)CC(C)=C(CC(=O)OC2CC(=O)OC2C)C(=O)CC1C)c1cccc(O)c1 (centres unmarked) [NEO-C, neo-debromoaplysiatoxin C]
survival at 0.1 µM (Artemia salina): 98.7 ± 2.31%
survival at 1 µM (Artemia salina): 99 ± 1.65%
survival at 10 µM (Artemia salina): 98.9 ± 1.92%
survival at 30 µM (Artemia salina): 94.9 ± 5.27%

COC(CCC(C)C1OC2(C=CC1C)CC(=O)C(C)CC2(C)C)c1cccc(O)c1 (centres unmarked) [OAT F, osciliatoxin F]
effect on survival of A. salina (in words) (Artemia salina; 30 µM): no apparent effect
survival at 0.1 µM (Artemia salina): 97.5 ± 2.2%
survival at 1 µM (Artemia salina): 98.8 ± 1.99%
survival at 10 µM (Artemia salina): 95.3 ± 1.92%
survival at 30 µM (Artemia salina): 85.5 ± 2.91%

COc1ccc(-c2cc(=O)c3c(O)cc(O)cc3o2)cc1 [acacetin]
IC50 (potassium channel Kv1.5 [1]; Kv1.5 expression in CHO cells, holding potential −80 mV, mean ± SEM of 3 to 5 measurements, Hill fit, read-out: IC50, inhibitory effect on Kv1.5 current): 5960 ± 560 nM

oscillatoxin E [OAT E]
IC50 (potassium channel Kv1.5 [2]; ref [33]): 790 ± 30 nM
